Assay results reported in patent publication US20220348558A1, “INHIBITORS OF ENCEPHALITIC ALPHAVIRUSES” (priority 2019, published 2022).

How the values were obtained:
[1] = test system: VEEV TC83; assay: microbe, parasite or virus in culture; format: cell-based; settings: Venezuelan equine encephalitis virus, Vero 76, 48 h, read-out: VEEV TC83 EC50 nM
[2] = test system: WEEV California; assay: microbe, parasite or virus in culture; format: cell-based; settings: Western equine encephalitis virus, Vero 76, 48 h, read-out: WEEV California EC50 nM

| SMILES | EC50 [1] [nM] | EC50 [2] [nM] |
| --- | --- | --- |
| COc1c(F)cc(-n2c([C@H]3CCCN3)nc3c(-c4ccc(C(F)(F)F)nc4)cc(C#N)cc3c2=O)cc1F [Example 118, (R)-3-(3,5-difluoro-4-methoxyphenyl)-4-oxo-2-(pyrrolidin-2-yl)-8-(6-(trifluoromethyl)pyridin-3-yl)-3,4-dihydroquinazoline-6-carbonitrile] | 1 to 50 | 51 to 150 |
| COc1ccc(-n2c([C@@H]3C[C@@H](O)CN3)nc3c(-c4ccc(C)nc4)cc(C#N)cc3c2=O)cc1F [Example 116, 3-(3-fluoro-4-methoxyphenyl)-2-((2S,4R)-4-hydroxypyrrolidin-2-yl)-8-(6-methylpyridin-3-yl)-4-oxo-3,4-dihydroquinazoline-6-carbonitrile] | > 1000 | > 1000 |
| Cc1ccccc1-n1c([C@H]2CCCN2)nc2ccc([N+](=O)[O-])cc2c1=O [Example 35, (R)-6-nitro-2-(pyrrolidin-2-yl)-3-(o-tolyl)quinazolin-4 (3H)-one] | > 1000 | > 1000 |
| O=c1c2cc([N+](=O)[O-])ccc2nc(C2CCCN2)n1-c1ccc(F)cc1 (centres unmarked) [Example 42, 3-(4-fluorophenyl)-6-nitro-2-(pyrrolidin-2-yl)quinazolin-4 (3H)-one] | 51 to 150 | 151 to 500 |
| COc1ccc(-n2c([C@@H]3CCCN3)nc3c(Br)cc(C#N)cc3c2=O)cc1F [Example 97, (S)-8-bromo-3-(3-fluoro-4-methoxyphenyl)-4-oxo-2-(pyrrolidin-2-yl)-3,4-dihydroquinazoline-6-carbonitrile] | 1 to 50 | 1 to 50 |
| O=c1c2cc([N+](=O)[O-])ccc2nc(C2CCCN2)n1-c1cccc(F)c1 (centres unmarked) [Example 40, 3-(3-fluorophenyl)-6-nitro-2-(pyrrolidin-2-yl)quinazolin-4 (3H)-one] | 1 to 50 | 501 to 1000 |
| COc1ccc(-n2c([C@H]3CCCN3)nc3c(F)c(F)c(F)cc3c2=O)cc1 [Example 16, (R)-6,7,8-trifluoro-3-(4-methoxyphenyl)-2-(pyrrolidin-2-yl)quinazolin-4 (3H)-one] | 501 to 1000 | > 1000 |
| COc1ccc(-n2c([C@@H]3CC(=O)CN3)nc3c(-c4ccc(C)nc4)cc(C#N)cc3c2=O)cc1F [Example 185, (S)-3-(3-fluoro-4-methoxyphenyl)-8-(6-methylpyridin-3-yl)-4-oxo-2-(4-oxopyrrolidin-2-yl)-3,4-dihydroquinazoline-6-carbonitrile] | 151 to 500 | > 1000 |
| COc1ccc(-n2c(C[C@H]3CCCN3)nc3c(-c4ccc(C)nc4)cc(C#N)cc3c2=O)cc1F [Example 117, (R)-3-(3-fluoro-4-methoxyphenyl)-8-(6-methylpyridin-3-yl)-4-oxo-2-(pyrrolidin-2-ylmethyl)-3,4-dihydroquinazoline-6-carbonitrile] | 151 to 500 | 501 to 1000 |
| COc1ccc(-n2c([C@]3(C)CCCN3)nc3c(-c4ccc(C)nc4)cc(C#N)cc3c2=O)cc1F [Example 142, (S)-3-(3-fluoro-4-methoxyphenyl)-8-(6-methylpyridin-3-yl)-2-(2-methylpyrrolidin-2-yl)-4-oxo-3,4-dihydroquinazoline-6-carbonitrile] | 1 to 50 | 1 to 50 |
| COc1ccc(-n2c(C3CCCN3)nc3c(-c4cnc(OC)c(OC)c4)cc(C#N)cc3c2=O)cc1F (centres unmarked) [Example 135, 8-(5,6-dimethoxypyridin-3-yl)-3-(3-fluoro-4-methoxyphenyl)-4-oxo-2-(pyrrolidin-2-yl)-3,4-dihydroquinazoline-6-carbonitrile] | 1 to 50 | 1 to 50 |
| COCCOc1c(F)cc(-n2c(C3CCCN3)nc3c(-c4ccnc(C)c4)cc(C#N)cc3c2=O)cc1F (centres unmarked) [Example 161, 3-(3,5-Difluoro-4-(2-methoxyethoxy)phenyl)-8-(2-methylpyridin-4-yl)-4-oxo-2-(pyrrolidin-2-yl)-3,4-dihydroquinazoline-6-carbonitrile] | 51 to 150 | 151 to 500 |
| COc1ccc(-n2c([C@H]3C[C@H](F)CN3)nc3c(-c4ccc(C)nc4)cc(C#N)cc3c2=O)cc1F [Example 112, 3-(3-fluoro-4-methoxyphenyl)-2-((2R,4S)-4-fluoropyrrolidin-2-yl)-8-(6-methylpyridin-3-yl)-4-oxo-3,4-dihydroquinazoline-6-carbonitrile] | 1 to 50 | 51 to 150 |
| COc1ccc(-n2c([C@H]3CCCN3)nc3c([N+](=O)[O-])cccc3c2=O)cc1 [Example 47, (R)-3-(4-methoxyphenyl)-8-nitro-2-(pyrrolidin-2-yl)quinazolin-4 (3H)-one] | > 1000 | > 1000 |
| COc1ccc(-n2c([C@H]3CCCN3)nc3cc([N+](=O)[O-])ccc3c2=O)cc1 [Example 48, (R)-3-(4-methoxyphenyl)-7-nitro-2-(pyrrolidin-2-yl)quinazolin-4 (3H)-one] | > 1000 | > 1000 |
| COc1ccc(-n2c([C@H]3Cc4ccccc4N3)nc3c(-c4ccc(C)nc4)cc(C#N)cc3c2=O)cc1F [Example 128, (R)-3-(3-fluoro-4-methoxyphenyl)-2-(indolin-2-yl)-8-(6-methylpyridin-3-yl)-4-oxo-3,4-dihydroquinazoline-6-carbonitrile] | 1 to 50 | 151 to 500 |

| SMILES | EC50 [1] [nM] | EC50 [2] [nM] |
| --- | --- | --- |
| COc1ccc(-n2c([C@H]3CCCN3)nc3c(-c4cncc(F)c4)cc(C#N)cc3c2=O)cc1F [Example 106, (R)-3-(3-fluoro-4-methoxyphenyl)-8-(5-fluoropyridin-3-yl)-4-oxo-2-(pyrrolidin-2-yl)-3,4-dihydroquinazoline-6-carbonitrile] | 1 to 50 | 1 to 50 |
| COc1ccc(-n2c(C3CCCN3)nc3c(-c4ccc(N5CCOCC5)nc4)cc(C#N)cc3c2=O)cc1F (centres unmarked) [Example 124, 3-(3-fluoro-4-methoxyphenyl)-8-(6-morpholinopyridin-3-yl)-4-oxo-2-(pyrrolidin-2-yl)-3,4-dihydroquinazoline-6-carbonitrile] | 1 to 50 | 1 to 50 |
| COc1ccc(-n2c([C@H]3CCCCN3)nc3ccc([N+](=O)[O-])cc3c2=O)cc1 [Example 33, (R)-3-(4-methoxyphenyl)-6-nitro-2-(piperidin-2-yl)quinazolin-4 (3H)-one] | 151 to 500 | 151 to 500 |
| COc1ccc(-n2c([C@@H]3CCCN3)nc3c(C(F)(F)F)cc(C#N)cc3c2=O)cc1F [Example 77, (S)-3-(3-fluoro-4-methoxyphenyl)-4-oxo-2-(pyrrolidin-2-yl)-8-(trifluoromethyl)-3,4-dihydroquinazoline-6-carbonitrile] | 51 to 150 | 1 to 50 |
| COc1ccc(-n2c([C@H]3CCCN3C)nc3c(C)cc([N+](=O)[O-])cc3c2=O)cc1F [Example 71, (R)-3-(3-fluoro-4-methoxyphenyl)-8-methyl-2-(1-methylpyrrolidin-2-yl)-6-nitroquinazolin-4 (3H)-one] | 51 to 150 | 51 to 150 |
| COc1c(F)cc(-n2c(C3CCCNC3)nc3c(-c4ccc(C)nc4)cc(C#N)cc3c2=O)cc1F (centres unmarked) [Example 189, 3-(3,5-difluoro-4-methoxyphenyl)-8-(6-methylpyridin-3-yl)-4-oxo-2-(piperidin-3-yl)-3,4-dihydroquinazoline-6-carbonitrile] | 51 to 150 | 51 to 150 |
| CN[C@@H](C)c1nc2ccc([N+](=O)[O-])cc2c(=O)n1-c1ccc(OC)cc1 [Example 206, (S)-3-(4-methoxyphenyl)-2-(1-(methylamino)ethyl)-6-nitroquinazolin-4 (3H)-one] | 51 to 150 | 151 to 500 |
| COc1ccc(-n2c([C@H]3CCCN3C3COC3)nc3ccc([N+](=O)[O-])cc3c2=O)cc1 [Example 11, (R)-3-(4-methoxyphenyl)-6-nitro-2-(1-(oxetan-3-yl)pyrrolidin-2-yl) quinazolin-4 (3H)-one] | 51 to 150 | 501 to 1000 |
| O=c1c2cc([N+](=O)[O-])ccc2nc([C@H]2CCCN2)n1-c1cccc(OC(F)(F)F)c1 [Example 45, (R)-6-nitro-2-(pyrrolidin-2-yl)-3-(3-(trifluoromethoxy)phenyl)quinazolin-4 (3H)-one] | > 1000 | > 1000 |
| COc1ccc(-n2c([C@H]3CCCN3)nc3ccc(C#N)c(F)c3c2=O)cc1 [Example 73, (R)-5-fluoro-3-(4-methoxyphenyl)-4-oxo-2-(pyrrolidin-2-yl)-3,4-dihydroquinazoline-6-carbonitrile] | > 1000 | > 1000 |
| COc1ccc(-n2c(C3CCCN3)nc3c(-c4ccc(N5CCOCC5)cc4)cc(C#N)cc3c2=O)cc1F (centres unmarked) [Example 153, 3-(3-Fluoro-4-methoxyphenyl)-8-(4-morpholinophenyl)-4-oxo-2-(pyrrolidin-2-yl)-3,4-dihydroquinazoline-6-carbonitrile] | 1 to 50 | 1 to 50 |
| COc1c(F)cc(-n2c(C3CCCN3)nc3c(-c4ccc(C#CCO)cc4)cc(C#N)cc3c2=O)cc1F (centres unmarked) [Example 169, 3-(3,5-difluoro-4-methoxyphenyl)-8-(4-(3-hydroxyprop-1-yn-1-yl)phenyl)-4-oxo-2-(pyrrolidin-2-yl)-3,4-dihydroquinazoline-6-carbonitrile] | 51 to 150 | 51 to 150 |
| COc1c(F)cc(-n2c(C3CCCN3)nc3c(C#CC(C)(C)O)cc(C#N)cc3c2=O)cc1F (centres unmarked) [Example 193, 3-(3,5-Difluoro-4-methoxyphenyl)-8-(3-hydroxy-3-methylbut-1-yn-1-yl)-4-oxo-2-(pyrrolidin-2-yl)-3,4-dihydroquinazoline-6-carbonitrile] | 51 to 150 | 51 to 150 |
| COc1ccc(-n2c([C@@H]3CCCN3C)nc3c(C)cc([N+](=O)[O-])cc3c2=O)cc1F [Example 70, (S)-3-(3-fluoro-4-methoxyphenyl)-8-methyl-2-(1-methylpyrrolidin-2-yl)-6-nitroquinazolin-4 (3H)-one] | 1 to 50 | 1 to 50 |
| COc1ccc(-n2c([C@H](C)N(C)C)nc3ccc([N+](=O)[O-])cc3c2=O)cc1 [Example 208, (S)-2-(1-(dimethylamino)ethyl)-3-(4-methoxyphenyl)-6-nitroquinazolin-4 (3H)-one] | 51 to 150 | 51 to 150 |
